22 compounds from patent publication US20210267203A1, “PESTICIDALLY ACTIVE AZOLE-AMIDE COMPOUNDS” (SYNGENTA PARTICIPATIONS AG, priority 2018, published 2021) can be followed below.

What all share (format): in vivo
Test [1] has as its system Plutella xylostella (Diamondback Moth). The experiment in a line: Example B14: activity against Plutella xylostella (diamondback moth), 96-well artificial diet. The following applies: 216 h, application rate 500 ppm, 9 days after infestation. The protocol:
Example B14: Activity Against Plutella xylostella (Diamondback Moth)
96-well microtiter plates containing artificial diet were treated with aqueous test solutions, prepared from 10,000 ppm DMSO stock solutions, by a liquid handling robot. After drying, eggs (30 per well) were infested onto a netted lid which was suspended above the diet. The eggs hatch and L1 larvae move down to the diet. The samples were assessed for mortality 9 days after infestation.
The following compounds gave an effect of at least 80% average mortality at an application rate of 500 ppm: […]

The test system of test [2] is Plutella xylostella (Diamond Back Moth). In words: Example B5: Plutella xylostella (diamond back moth), artificial diet, 24-well, eggs. The following applies: 192 h, application rate 200 ppm, 8 days after infestation, read-out: effect in at least one of the two categories (mortality or growth inhibition). The protocol:
Example B5: Plutella xylostella (Diamond Back Moth)
24-well microtiter plates with artificial diet were treated with aqueous test solutions prepared from 10,000 ppm DMSO stock solutions by pipetting. After drying, Plutella eggs were pipetted through a plastic stencil onto a gel blotting paper and the plate was closed with it. The samples were assessed for mortality and growth inhibition in comparison to untreated samples 8 days after infestation. The following compounds gave an effect of at least 80% in at least one of the two categories (mortality or growth inhibition) at an application rate of 200 ppm: […]

The subject of test [3] is Myzus persicae (Green Peach Aphid). In words: Example B13: activity against Myzus persicae (green peach aphid), 96-well sucrose solution. The settings on record: 120 h, application rate 50 ppm, 5 days after infestation. An excerpt:
Example B13: Activity Against Myzus persicae (Green Peach Aphid)
Test compounds prepared from 10,000 ppm DMSO stock solutions were applied by a liquid handling robot into 96-well microtiter plates and mixed with a sucrose solution. Parafilm was stretched over the 96-well microtiter plate and a plastic stencil with 96 holes was placed onto the plate. Aphids were sieved into the wells directly onto the Parafilm. The infested plates were closed with a gel blotting card and a second plastic stencil and then turned upside down. The samples were assessed for mortality 5 days after infestation.

In test [4] the test system is Spodoptera littoralis (Egyptian Cotton Leaf Worm). In words: Example B9: Spodoptera littoralis (Egyptian cotton leaf worm), cotton leaf discs sprayed, L1 larvae. The settings on record: foliar, 72 h, application rate 200 ppm, 3 days after infestation. As to the method:
Example B9: Spodoptera littoralis (Egyptian Cotton Leaf Worm)
Cotton leaf discs were placed onto agar in 24-well microtiter plates and sprayed with aqueous test solutions prepared from 10,000 ppm DMSO stock solutions. After drying the leaf discs were infested with five L1 larvae. The samples were assessed for mortality, anti-feeding effect, and growth inhibition in comparison to untreated samples 3 days after infestation. Control of Spodoptera littoralis by a test sample is given when at least one of the three categories (i.e. mortality, anti-feedant effect, and growth inhibition) is higher than the untreated sample.

Test [5] relates to Diabrotica Balteata (Corn Root Worm). The experiment in a line: Example B1: Diabrotica balteata (corn root worm), maize sprouts sprayed, L2 larvae. The settings on record: 96 h, application rate 200 ppm, 4 days after infestation, read-out: effect in at least one of the two categories (mortality or growth inhibition). As to the method: Example B1: Diabrotica Balteata (Corn Root Worm)
Maize sprouts placed onto an agar layer in 24-well microtiter plates were treated with aqueous test solutions prepared from 10,000 ppm DMSO stock solutions by spraying. After drying, the plates were infested with L2 larvae (6 to 10 per well). The samples were assessed for mortality and growth inhibition in comparison to untreated samples 4 days after infestation.
The following compounds gave an effect of at least 80% in at least one of the two categories (mortality or growth inhibition) at an application rate of 200 ppm: […]

The term mortality denotes the share of the test organisms that died. Read a low mortality as more survivors. `CC(c1ncnn1-c1ncccn1)N(CC1CC1)C(=O)c1cc(C(F)(F)F)cc(C2(C)CC2)c1` (stereo not shown) [P38, N-(cyclopropylmethyl)-3-(1-methylcyclopropyl)-N-[1-(2-pyrimidin-2-yl-1,2,4-triazol-3-yl)ethyl]-5-(trifluoromethyl)benzamide] registered a mortality at 500 ppm in test [1] of no less than 80%. Moreover, the percent effect (mortality or growth inhibition) at 200 ppm in test [2] is no less than 80%.

In turn, `CC(c1ncnn1-c1ncccn1)N(CC1CC1)C(=O)c1cc(OC2CCC2)cc(C(F)(F)F)c1` (stereo not shown) [P48, 3-(cyclobutoxy)-N-(cyclopropylmethyl)-N-[1-(2-pyrimidin-2-yl-1,2,4-triazol-3-yl)ethyl]-5-(trifluoromethyl)benzamide] displayed a mortality at 500 ppm in test [1] of no less than 80%. `CC(c1ncnn1-c1ncccn1)N(CC1CC1)C(=O)c1cccc(-c2ccc(C(F)(F)F)cc2)c1` (stereo not shown) [P3, N-(cyclopropylmethyl)-N-[1-(2-pyrimidin-2-yl-1,2,4-triazol-3-yl)ethyl]-3-[4-(trifluoromethyl)phenyl)benzamide] came in with a mortality at 500 ppm in test [1] of no less than 80%. In test [2], the percent effect (mortality or growth inhibition) at 200 ppm was no less than 80%. `CC(c1ncnn1-c1ncccn1)N(CC1CC1)C(=O)c1cccc(-c2cccc(C(F)(F)F)c2)n1` (stereo not shown) [P15, N-(cyclopropylmethyl)-N-[1-(2-pyrimidin-2-yl-1,2,4-triazol-3-yl)ethyl]-6-[3-(trifluoromethyl)phenyl]pyridine-2-carboxamide] returned a mortality at 500 ppm in test [1] of no less than 80%. The percent effect (mortality or growth inhibition) at 200 ppm in test [2] was no less than 80%. This compound gave a mortality at 50 ppm in test [3] of no less than 80%. In test [1], `CC(c1ncnn1-c1ncccn1)N(CC1CC1)C(=O)c1cc(N2CC(F)(F)C2)cc(C(F)(F)F)c1` (stereo not shown) [P20, N-(cyclopropylmethyl)-3-(3,3-difluoroazetidin-1-yl)-N-[1-(2-pyrimidin-2-yl-1,2,4-triazol-3-yl)ethyl]-5-(trifluoromethyl)benzamide] yielded a mortality at 500 ppm of no less than 80%. This compound displayed a mortality at 50 ppm in test [3] of no less than 80%. Regarding `CC(NC(=O)c1cc(-c2cncc(Cl)c2)cc(C(F)(F)F)c1)c1ncnn1-c1ncccn1` (stereo not shown) [P63, 3-(5-chloro-3-pyridyl)-N-[1-(2-pyrimidin-2-yl-1,2,4-triazol-3-yl)ethyl]-5-(trifluoromethyl)benzamide], in test [2], the percent effect (mortality or growth inhibition) at 200 ppm is no less than 80%. Turning to `CC(c1ncnn1-c1ncccn1)N(CC1CC1)C(=O)c1cc(OCC2CC2)cc(C(F)(F)F)c1` (stereo not shown) [P47, 3-(cyclopropylmethoxy)-N-(cyclopropylmethyl)-N-[1-(2-pyrimidin-2-yl-1,2,4-triazol-3-yl)ethyl]-5-(trifluoromethyl)benzamide], the mortality at 500 ppm in test [1] was no less than 80%. Besides, the percent effect (mortality or growth inhibition) at 200 ppm in test [2] was no less than 80%. In addition, the mortality at 50 ppm in test [3] is no less than 80%.

With `CC(NC(=O)c1cc(OC(C)(C)C#N)cc(C(F)(F)F)c1)c1ncnn1-c1ncccn1` (stereo not shown) [P56, 3-(1-cyano-1-methyl-ethoxy)-N-[1-(2-pyrimidin-2-yl-1,2,4-triazol-3-yl)ethyl]-5-(trifluoromethyl)benzamide], the percent effect (mortality or growth inhibition) at 200 ppm in test [2] and in test [5] was no less than 80% throughout. The compound further displayed a percent control (mortality, anti-feedant effect or growth inhibition) at 200 ppm in test [4] of no less than 80%. Turning to `CC(c1ncnn1-c1ncccn1)N(CC1CC1)C(=O)c1ccc(Oc2ccc(C(F)(F)F)cc2)cc1` (stereo not shown) [P16, N-(cyclopropylmethyl)-N-[1-(2-pyrimidin-2-yl-1,2,4-triazol-3-yl)ethyl]-4-[4-(trifluoromethyl)phenoxy]benzamide], the percent effect (mortality or growth inhibition) at 200 ppm in test [5] is no less than 80%. For `CC(c1ncnn1-c1ncccn1)N(CC1CC1)C(=O)c1cc(-c2ccc(F)cc2)cc(C(F)(F)F)c1` (stereo not shown) [P36, N-(cyclopropylmethyl)-3-(4-fluorophenyl)-N-[1-(2-pyrimidin-2-yl-1,2,4-triazol-3-yl)ethyl]-5-(trifluoromethyl)benzamide], the mortality at 500 ppm in test [1] is no less than 80%. The percent effect (mortality or growth inhibition) at 200 ppm in test [2] is no less than 80%. Besides, in test [4], the percent control (mortality, anti-feedant effect or growth inhibition) at 200 ppm was no less than 80%.

In test [1], `CC(c1ncnn1-c1ncccn1)N(CC1CC1)C(=O)c1ccc(-c2ccc(F)cc2)cc1` (stereo not shown) [P5, N-(cyclopropylmethyl)-4-(4-fluorophenyl)-N-[1-(2-pyrimidin-2-yl-1,2,4-triazol-3-yl)ethyl]benzamide] had a mortality at 500 ppm of no less than 80%. In addition, in test [2], the percent effect (mortality or growth inhibition) at 200 ppm was no less than 80%. `CC(c1ncnn1-c1ncccn1)N(CC1CC1)C(=O)c1cncc(-c2cccc(C(F)(F)F)c2)c1` (stereo not shown) [P8, N-(cyclopropylmethyl)-N-[1-(2-pyrimidin-2-yl-1,2,4-triazol-3-yl)ethyl]-5-[3-(trifluoromethyl)phenyl]pyridine-3-carboxamide]: the percent effect (mortality or growth inhibition) at 200 ppm in test [2] was no less than 80%. `CC(NC(=O)c1cc(-n2ccc(Cl)n2)nc(C(F)(F)F)c1)c1ncnn1-c1ncccn1` (stereo not shown) [P70, 2-(3-chloropyrazol-1-yl)-N-[1-(2-pyrimidin-2-yl-1,2,4-triazol-3-yl)ethyl]-6-(trifluoromethyl)pyridine-4-carboxamide] displayed a mortality at 500 ppm in test [1] of no less than 80%. Moreover, the percent effect (mortality or growth inhibition) at 200 ppm in test [2] is no less than 80%. The percent control (mortality, anti-feedant effect or growth inhibition) at 200 ppm in test [4] is no less than 80%. Regarding `CC(c1ncnn1-c1ncccn1)N(CC1CC1)C(=O)c1cnc(C2CC2)nc1` (stereo not shown) [P11, 2-cyclopropyl-N-(cyclopropylmethyl)-N-[1-(2-pyrimidin-2-yl-1,2,4-triazol-3-yl)ethyl]pyrimidine-5-carboxamide], in test [3], the mortality at 50 ppm is no less than 80%. Compound `CC(c1ncnn1-c1ncccn1)N(CC1CC1)C(=O)c1ccc(-n2ccc(C(F)(F)F)n2)cc1` (stereo not shown) [P1, N-(cyclopropylmethyl)-N-[1-(2-pyrimidin-2-yl-1,2,4-triazol-3-yl)ethyl]-4-[3-(trifluoromethyl)pyrazol-1-yl]benzamide] had a mortality at 500 ppm in test [1] of no less than 80%. `CC(c1ncnn1-c1ncccn1)N(CC1CC1)C(=O)c1ccc(N2CCCCC2=O)cc1` (stereo not shown) [P17, N-(cyclopropylmethyl)-4-(2-oxo-1-piperidyl)-N-[1-(2-pyrimidin-2-yl-1,2,4-triazol-3-yl)ethyl]benzamide] registered a mortality at 50 ppm in test [3] of no less than 80%. Same read-out and setting: with `CC(c1ncnn1-c1ncccn1)N(CC1CC1)C(=O)c1ccc(-n2ccccc2=O)cc1` (stereo not shown) [P18, N-(cyclopropylmethyl)-4-(2-oxo-1-pyridyl)-N-[1-(2-pyrimidin-2-yl-1,2,4-triazol-3-yl)ethyl]benzamide] the figure was no less than 80%. The compound `CC(c1ncnn1-c1ncccn1)N(CC1CC1)C(=O)c1ccc(C2(C#N)CC2)cc1` (stereo not shown) [P2, 4-(1-cyanocyclopropyl)-N-(cyclopropylmethyl)-N-[1-(2-pyrimidin-2-yl-1,2,4-triazol-3-yl)ethyl]benzamide] displayed a mortality at 500 ppm in test [1] of no less than 80%.

Consider `CC(c1ncnn1-c1ncccn1)N(CC1CC1)C(=O)c1cc(Cl)cc(C(C)(C)C#N)n1` (stereo not shown) [P28, 4-chloro-6-(1-cyano-1-methyl-ethyl)-N-(cyclopropylmethyl)-N-[1-(2-pyrimidin-2-yl-1,2,4-triazol-3-yl)ethyl]pyridine-2-carboxamide], for which, in test [1], the mortality at 500 ppm is no less than 80%. As to `CC(c1ncnn1-c1ncccn1)N(CC1CC1)C(=O)c1cccc(-c2ccc(F)cc2)c1` (stereo not shown) [P4, N-(cyclopropylmethyl)-3-(4-fluorophenyl)-N-[1-(2-pyrimidin-2-yl-1,2,4-triazol-3-yl)ethyl]benzamide], the mortality at 500 ppm in test [1] is no less than 80%. On to `CC(c1ncnn1-c1ncccn1)N(CC1CC1)C(=O)c1cc(C(F)(F)F)cc(C(F)(F)C2CCC2)c1` (stereo not shown) [P71, 3-[cyclobutyl(difluoro)methyl]-N-(cyclopropylmethyl)-N-[1-(2-pyrimidin-2-yl-1,2,4-triazol-3-yl)ethyl]-5-(trifluoromethyl)benzamide], for which the mortality at 500 ppm in test [1] was no less than 80%.

`CC(c1ncnn1-c1ncccn1)N(CC1CC1)C(=O)c1cc(-c2cccc(C(F)(F)F)c2)ccn1` (stereo not shown) [P9, N-(cyclopropylmethyl)-N-[1-(2-pyrimidin-2-yl-1,2,4-triazol-3-yl)ethyl]-4-[3-(trifluoromethyl)phenyl]pyridine-2-carboxamide] registered a mortality at 500 ppm in test [1] of no less than 80%. The percent effect (mortality or growth inhibition) at 200 ppm in test [2] is no less than 80%.
